Laboratory results reported in patent publication US20230338316A1, “ABBAPOLINS AS INHIBITORS AND DEGRADERS OF POLO-LIKE KINASES” (UNIVERSITY OF SOUTH CAROLINA, priority 2022, published 2023).

Tests used:
[1] = system: SH-SY5Y neuroblastoma cells overexpressing PLK1; assay: Cell viability assay in neuroblastoma cells; assay type: cell-based; details: Homo sapiens, SH-SY5Y
Procedure: (§1) Abbapolin compounds activity was evaluated in neuroblastoma cells. […] Further, abbapolins induced PLK1 degradation in SH-SY5Y cells (FIG. 14-16).

PLK1 PBD (367-603) = target: T1, PLK1 PBD (367-603) (Homo sapiens, UniProt P53350); assay: Fluorescence polarization assay, PLK1 PBD; assay type: binding; details: fluorescence polarization; read-out: PLK1 PBD IC50
T1 construct: PLK1 PBD (367-603) and PLK3 PBD (335-646) proteins were obtained from BPS Biosciences Inc; purchased BPS Biosciences Inc. (San Diego, CA)
T1 sequence (P53350 367-603): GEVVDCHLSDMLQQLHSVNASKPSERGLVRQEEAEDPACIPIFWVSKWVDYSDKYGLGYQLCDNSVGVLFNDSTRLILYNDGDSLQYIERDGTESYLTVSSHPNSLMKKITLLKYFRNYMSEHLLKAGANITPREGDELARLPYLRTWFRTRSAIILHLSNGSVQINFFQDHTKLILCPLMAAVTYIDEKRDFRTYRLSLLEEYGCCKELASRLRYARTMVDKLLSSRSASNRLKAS
Procedure: (§2) Materials were dissolved in DMSO (10 mM) and diluted from 10 nM to 600 μM (maximum of 6% DMSO tolerance in the assay). PLK1 PBD (367-603) and PLK3 PBD (335-646) proteins were obtained from BPS Biosciences Inc. (San Diego, CA); 17 ng PLK1 and 156 ng PLK3 were used per reaction. The fluorescein-tracer phospho-peptides (MAGPMQS[pT]PLNGAKK (SEQ ID NO: 1) for PLK1, and GPLATS[pT]PKNG (SEQ ID NO: 2) for PLK3) were used at a final concentration of 10 nM. Incubation was carried out at room temperature for 45 minutes. Fluorescence was measured using a DTX 880 plate reader and Multimode Analysis software (Beckman Coulter, Brea, CA). The polarization values in millipolarization (mP) units were measured at an excitation wavelength of 488 nm and an emission wavelength of 535 nm. Each data point was performed in triplicate for every experiment, and experiments were performed at least three times. An IC50 value for each compound was calculated from linear regression analysis of the plots.

RPMI-8226 = assay: Single dose cell viability assay, RPMI-8226; assay type: cell-based; details: RPMI-8226 (Leukemia), single dose 25 μM
Procedure: (§3) Lead abbapolin compounds were tested in multiple cancer cell lines, including non-small cell lung cancer (NSCLC) cells, melanoma cells, colon cancer cells, central nervous system (CNS) cancer cells, prostate cancer cells, renal cancer cells, and breast cancer cells. Each of these cancer cells lines were sensitive to the lead abbapolin compounds in a cell viability assay, including 6184 (Table 3), 6277 (Table 4), 6279 (Table 5), 6355 (Table 6), 6359 (Table 7), 6369 (Table 8), and 6421 (Table 9).

A549/ATCC = assay: Single dose cell viability assay, A549/ATCC; assay type: cell-based; details: A549/ATCC (NSCLC), single dose 25 μM
Procedure: as §3

HCT-116 = assay: Single dose cell viability assay, HCT-116; assay type: cell-based; details: HCT-116 (Colon), single dose 25 μM
Procedure: as §3

SR = assay: Single dose cell viability assay, SR; assay type: cell-based; details: SR (Leukemia), single dose 25 μM
Procedure: as §3

HCT-15 = assay: Single dose cell viability assay, HCT-15; assay type: cell-based; details: HCT-15 (Colon), single dose 25 μM
Procedure: as §3

PLK1 = PLK1 (Homo sapiens, UniProt P53350); assay: PLK1 degradation in SH-SY5Y cells; assay type: cell-based; parameters: endogenous in cells
PLK1, sequence (P53350 whole entry): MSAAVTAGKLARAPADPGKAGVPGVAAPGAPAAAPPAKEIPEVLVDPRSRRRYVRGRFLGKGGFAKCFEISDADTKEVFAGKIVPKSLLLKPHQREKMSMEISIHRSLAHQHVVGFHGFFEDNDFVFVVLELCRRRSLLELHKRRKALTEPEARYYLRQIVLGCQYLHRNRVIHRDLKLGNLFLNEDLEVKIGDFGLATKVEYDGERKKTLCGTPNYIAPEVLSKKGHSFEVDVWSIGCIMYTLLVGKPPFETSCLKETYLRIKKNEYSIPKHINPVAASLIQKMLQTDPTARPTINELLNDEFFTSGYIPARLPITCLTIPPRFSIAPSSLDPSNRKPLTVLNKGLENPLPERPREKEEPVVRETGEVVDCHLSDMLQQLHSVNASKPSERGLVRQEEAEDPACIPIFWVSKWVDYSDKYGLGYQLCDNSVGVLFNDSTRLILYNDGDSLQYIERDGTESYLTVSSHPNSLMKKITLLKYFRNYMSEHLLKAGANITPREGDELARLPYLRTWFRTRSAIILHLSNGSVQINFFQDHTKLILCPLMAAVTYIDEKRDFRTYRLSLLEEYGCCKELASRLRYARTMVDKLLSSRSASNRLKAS
Procedure: as §1

NCI-H460 = assay: Single dose cell viability assay, NCI-H460; assay type: cell-based; details: NCI-H460 (NSCLC), single dose 25 μM
Procedure: as §3

CCRF-CEM = assay: Single dose cell viability assay, CCRF-CEM; assay type: cell-based; details: CCRF-CEM (Leukemia), single dose 25 μM
Procedure: as §3

PLK3 PBD (335-646) = target: T2, PLK3 PBD (335-646) (Homo sapiens, UniProt Q9H4B4); assay: Fluorescence polarization assay, PLK3 PBD; assay type: binding
T2 construct: PLK1 PBD (367-603) and PLK3 PBD (335-646) proteins were obtained from BPS Biosciences Inc; purchased BPS Biosciences Inc. (San Diego, CA)
T2 sequence (Q9H4B4 335-646): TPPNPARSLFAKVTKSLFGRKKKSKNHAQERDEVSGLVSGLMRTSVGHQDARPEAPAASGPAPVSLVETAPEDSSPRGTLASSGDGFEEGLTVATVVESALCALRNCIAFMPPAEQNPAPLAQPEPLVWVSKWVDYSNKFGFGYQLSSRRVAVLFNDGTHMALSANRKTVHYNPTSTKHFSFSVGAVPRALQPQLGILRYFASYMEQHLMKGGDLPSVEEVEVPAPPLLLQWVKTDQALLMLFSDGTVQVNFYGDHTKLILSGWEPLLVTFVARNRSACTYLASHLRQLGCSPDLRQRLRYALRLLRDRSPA
Procedure: as §2

LOX IMVI = assay: Single dose cell viability assay, LOX IMVI; assay type: cell-based; details: single dose 25 μM, 48 hours
Procedure: as §3

K-562 = assay: Single dose cell viability assay, K-562; assay type: cell-based; details: K-562 (Leukemia), single dose 25 μM
Procedure: as §3

MOLT-4 = assay: Single dose cell viability assay, MOLT-4; assay type: cell-based; details: MOLT-4 (Leukemia), single dose 25 μM
Procedure: as §3

U251 = assay: Single dose cell viability assay, U251; assay type: cell-based; details: U251 (CNS), single dose 25 μM
Procedure: as §3

HOP-92 = assay: Single dose cell viability assay, HOP-92; assay type: cell-based; details: HOP-92 (NSCLC), single dose 25 μM
Procedure: as §3

KM12 = assay: Single dose cell viability assay, KM12; assay type: cell-based; details: KM12 (Colon), single dose 25 μM
Procedure: as §3

SF-295 = assay: Single dose cell viability assay, SF-295; assay type: cell-based; details: SF-295 (CNS), single dose 25 μM
Procedure: as §3

NCI-H522 = assay: Single dose cell viability assay, NCI-H522; assay type: cell-based; details: NCI-H522 (NSCLC), single dose 25 μM
Procedure: as §3

SNB-19 = assay: Single dose cell viability assay, SNB-19; assay type: cell-based; details: SNB-19 (CNS), single dose 25 μM
Procedure: as §3

PC-3 = assay: Single dose cell viability assay, PC-3; assay type: cell-based; details: PC-3 (Prostate), single dose 25 μM
Procedure: as §3

ACHN = assay: Single dose cell viability assay, ACHN; assay type: cell-based; details: ACHN (Renal), single dose 25 μM
Procedure: as §3

NCI-H226 = assay: Single dose cell viability assay, NCI-H226; assay type: cell-based; details: NCI-H226 (NSCLC), single dose 25 μM
Procedure: as §3

NCI-H23 = assay: Single dose cell viability assay, NCI-H23; assay type: cell-based; details: NCI-H23 (NSCLC), single dose 25 μM
Procedure: as §3

SK-MEL-5 = assay: Single dose cell viability assay, SK-MEL-5; assay type: cell-based; details: SK-MEL-5 (Melanoma), single dose 25 μM
Procedure: as §3

SK-MEL-2 = assay: Single dose cell viability assay, SK-MEL-2; assay type: cell-based; details: SK-MEL-2 (Melanoma), single dose 25 μM
Procedure: as §3

T-47D = assay: Single dose cell viability assay, T-47D; assay type: cell-based; details: T-47D (Breast), single dose 25 μM
Procedure: as §3

UO-31 = assay: Single dose cell viability assay, UO-31; assay type: cell-based; details: UO-31 (Renal), single dose 25 μM
Procedure: as §3

EKVX = assay: Single dose cell viability assay, EKVX; assay type: cell-based; details: EKVX (NSCLC), single dose 25 μM
Procedure: as §3

MDA-MB-468 = assay: Single dose cell viability assay, MDA-MB-468; assay type: cell-based; details: MDA-MB-468 (Breast), single dose 25 μM
Procedure: as §3

HL-60(TB) = assay: Single dose cell viability assay, HL-60(TB); assay type: cell-based; details: HL-60(TB) (Leukemia), single dose 25 μM
Procedure: as §3

MCF7 = assay: Single dose cell viability assay, MCF7; assay type: cell-based; details: MCF7 (Breast), single dose 25 μM
Procedure: as §3

UACC-62 = assay: Single dose cell viability assay, UACC-62; assay type: cell-based; details: UACC-62 (Melanoma), single dose 25 μM
Procedure: as §3

CCCCCCCCc1cccc(CC(=O)Nc2ccc(C)cc2C(=O)O)c1 [compound 6277]
IC50 [1]: 5.25 ± 0.5 µM | IC50 (PLK1 PBD (367-603)): 19.7 µM | Cells Remaining (%) (RPMI-8226): 25.43% | Cells Remaining (%) (A549/ATCC): 31.38% | Cells Remaining (%) (HCT-116): 28.14% | Cells Remaining (%) (SR): 31.08% | Cells Remaining (%) (HCT-15): 13.2% | PLK1 degradation (PLK1): degradation of PLK1 | Cells Remaining (%) (NCI-H460): 20.45% | Cells Remaining (%) (CCRF-CEM): 26.74% | IC50 (PLK3 PBD (335-646)): 29.4 µM | inhibition at 25 µM (LOX IMVI; Homo sapiens, LOX IMVI, from cells remaining): 96.4% | Cells Remaining (%) (LOX IMVI; LOX IMVI (Melanoma)): 3.4% | Cells Remaining (%) (K-562): 28.94% | Cells Remaining (%) (MOLT-4): 17.93%

CCCCCCCCc1ccc(C(=O)Nc2ccc(C)cc2C(=O)O)cc1O [compound 6279]
Cells Remaining (%) (U251): 45.14% | Cells Remaining (%) (HOP-92): 57.85% | IC50 (PLK1 PBD (367-603)): 31.8 µM | Cells Remaining (%) (RPMI-8226): 63.91% | Cells Remaining (%) (KM12): 52.19% | Cells Remaining (%) (HCT-15): 56.83% | Cells Remaining (%) (SF-295): 59.38% | Cells Remaining (%) (CCRF-CEM): 55.59% | Cells Remaining (%) (NCI-H522): 59.89% | Cells Remaining (%) (SNB-19): 43.49% | Cells Remaining (%) (PC-3): 58.63% | Cells Remaining (%) (K-562): 49.7% | Cells Remaining (%) (ACHN): 61.79%

CCCCCCCCc1ccc(C(=O)Nc2ccccc2O)cc1 [compound 6421]
Cells Remaining (%) (NCI-H226): 66.21% | Cells Remaining (%) (RPMI-8226): 48.98% | Cells Remaining (%) (NCI-H23): 62.07% | Cells Remaining (%) (SK-MEL-5): 70.42% | Cells Remaining (%) (SK-MEL-2): 38.46% | Cells Remaining (%) (T-47D): 27.32% | Cells Remaining (%) (UO-31): 59.4% | Cells Remaining (%) (CCRF-CEM): 37.43% | Cells Remaining (%) (NCI-H522): 70.52% | Cells Remaining (%) (K-562): 53.71% | Cells Remaining (%) (EKVX): 52.89% | Cells Remaining (%) (MDA-MB-468): 45.03% | Cells Remaining (%) (HL-60(TB)): 69.66% | Cells Remaining (%) (MCF7): 35.21% | Cells Remaining (%) (UACC-62): 69.99% | Cells Remaining (%) (MOLT-4): 58.2%
